BindingDB's records for doi:10.1021/jm9801760 (National Cancer Institute-Bethesda, 1998)

Tests used:
Integrase [1] = target: T1, Integrase (Human immunodeficiency virus 1, UniProt Q7ZJM1); experiment: Inhibition of HIV-1 integrase enzyme at 3`- processing stage of DNA integration
Integrase [2] = target: T1, Integrase; experiment: Inhibitory concentration as 50% inhibition of HIV-1 integrase enzyme at strand transfer stage of DNA integration.

T1 sequence (Q7ZJM1 whole entry): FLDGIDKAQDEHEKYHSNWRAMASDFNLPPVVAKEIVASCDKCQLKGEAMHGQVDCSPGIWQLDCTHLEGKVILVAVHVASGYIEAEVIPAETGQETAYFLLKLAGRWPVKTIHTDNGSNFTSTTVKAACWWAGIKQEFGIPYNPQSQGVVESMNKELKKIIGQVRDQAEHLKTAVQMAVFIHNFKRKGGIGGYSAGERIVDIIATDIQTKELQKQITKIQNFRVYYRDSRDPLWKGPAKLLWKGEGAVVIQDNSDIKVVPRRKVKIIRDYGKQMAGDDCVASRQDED

| SMILES | IC50 (Integrase [1]) [µM] | IC50 (Integrase [2]) [µM] |
| --- | --- | --- |
| C=c1[nH]n(C(=O)c2ccc(Cl)cc2)c(=O)c1=Cc1ccc(O)cc1 | > 293 | > 293 |
| C=c1[nH]n(C(=O)c2ccccc2O)c(=O)c1=Cc1ccc(OC)cc1 | 0.9 | – |
| C=c1[nH]n(C(=O)c2ccccc2O)c(=O)c1=Cc1ccc(O)c(OC)c1 [2-(2-Hydroxy-benzoyl)-4-[1-(4-hydroxy-3-methoxy-phenyl)-meth-(E)-ylidene]-5-methyl-2,4-dihydro-pyrazol-3-one] | 0.8 | 0.6 |
| C=c1[nH]n(C(=O)c2ccccc2O)c(=O)c1=Cc1ccc(O)cc1 [2-(2-Hydroxy-benzoyl)-4-[1-(4-hydroxy-phenyl)-meth-(E)-ylidene]-5-methyl-2,4-dihydro-pyrazol-3-one] | 0.6 | 0.9 |
| C=c1[nH]n(C(=O)c2ccc(Cl)cc2)c(=O)c1=Cc1ccccc1O [2-(4-Chloro-benzoyl)-4-[1-(2-hydroxy-phenyl)-meth-(E)-ylidene]-5-methyl-2,4-dihydro-pyrazol-3-one] | > 293 | > 293 |
| C=c1[nH]n(C(=O)c2ccc(Cl)cc2)c(=O)c1=Cc1ccc(OC)c(OC)c1 [2-(4-Chloro-benzoyl)-4-[1-(3,4-dimethoxy-phenyl)-meth-(E)-ylidene]-5-methyl-2,4-dihydro-pyrazol-3-one] | > 260 | > 260 |
| C=c1[nH]n(C(=O)c2ccc(Cl)cc2)c(=O)c1=Cc1cccc(O)c1 [2-(4-Chloro-benzoyl)-4-[1-(3-hydroxy-phenyl)-meth-(E)-ylidene]-5-methyl-2,4-dihydro-pyrazol-3-one] | > 293 | > 293 |
| C=c1[nH]n(C(=O)c2ccc(Cl)cc2)c(=O)c1=Cc1ccc(Cl)cc1 [2-(4-Chloro-benzoyl)-4-[1-(4-chloro-phenyl)-meth-(E)-ylidene]-5-methyl-2,4-dihydro-pyrazol-3-one] | > 280 | > 280 |
| C=c1[nH]n(C(=O)c2ccc(Cl)cc2)c(=O)c1=Cc1cc(OC)c(OC)c(OC)c1 [2-(4-Chloro-benzoyl)-5-methyl-4-[1-(3,4,5-trimethoxy-phenyl)-meth-(E)-ylidene]-2,4-dihydro-pyrazol-3-one] | > 240 | > 240 |
